# Values quoted from earlier work, collected in patent publication US12275835B1, “High clarity antimicrobial resins” (Phoenix Plastics L.P., priority 2020, dated 2025).
# Experiments:
# Gram-positive bacteria = conditions: within 30 seconds
# Gram-negative bacteria = conditions: within 30 seconds
structure (smiles),measurement,setting,value
N=C(NCCCCCCNC(=N)NC(=N)Nc1ccc(Cl)cc1)NC(=N)Nc1ccc(Cl)cc1 [chlorhexidine],kill of Gram-positive bacteria,Gram-positive bacteria,~100%
same,kill of Gram-negative bacteria,Gram-negative bacteria,~100%
